In patent US20260216239A1 (Arizona Board of Regents on Behalf of the University of …, priority 2020, published 2026):
Entries after “also recorded” stand apart in the source; their conditions may differ.

What was measured:
[1] = system: Echis leucogaster venom; experiment: Thrombelastography in human plasma of venom procoagulant activity after isolated exposure of venom to compounds; format: biochemical
Description: Thrombelastographic analyses. The volumes of subsequently described plasmatic and other additives summed to a final volume of 360 μl. Samples were composed of 320 μl of plasma; 16.4 μl of PBS, 20 μl of 200 mM CaCl2), and 3.6 μl of PBS or venom mixture, which were pipetted into a disposable cup in a Thrombelastograph® hemostasis system (Model 5000, Haemonetics Inc., Braintree, MA, USA) at 37° C., and then rapidly mixed by moving the cup up against and then away from the plastic pin five times. The following viscoelastic parameters described previously (see, Nielsen V G (2019) J Thromb Thrombolysis 47, 73-79; Gessner G, et al., (2017) Eur J Pharmacol 815, 33-41; Nielsen V G, Wagner M T, Frank N (2020) Int J Mol Sci 21, 2082; Lazić D, Arsenijević A, Puchta R, Bugarčić ŽD, Rilak A (2016) Dalton Trans 45, 4633; Hanif M, et al., (2017) ChemPlusChem 82, 841-847) were measured: time to maximum rate of thrombus generation (TMRTG): this is the time interval (minutes) observed prior to maximum speed of clot growth; maximum rate of thrombus generation (MRTG): this is the maximum velocity of clot growth observed (dynes/cm^2/second); and total thrombus generation (TTG, dynes/cm^2), the final viscoelastic resistance observed after clot formation.
E. leucogaster. This venom was exposed to 0 or 100 μM CORM-2 in the presence of 0 or 100 μM RuCl3 in PBS for at least 5 minutes at room temperature prior to placement into plasma followed immediately with commencement of thrombelastographic analysis. The final concentration of this venom in plasma was 1 μg/ml.
Given the aforementioned, the experimental conditions utilized were: 1) V condition—venom in PBS; 2) Ru(II) condition—venom exposed to CORM-2; 3) Ru(III) condition—venom exposed to RuCl3; 4) Ru(II+III) condition—venom exposed to CORM-2 and RuCl3 simultaneously. After the 5 minute period at room temperature, 3.6 μl of one of these solutions was added to the plasma sample in the plastic thrombelastograph cup.
(§1) All venom solutions without or with chemical additions in isolation were added as a 1% addition to the plasma mix used in our thrombelastographic system (see, Nielsen, V. G.; et al., Biometals 2016, 29, 913-919; Nielsen, V. G.; Losada, P. A. Basic Clin. Pharmacol. Toxicol. 2017, 120, 207-212; Nielsen, V. G.; Frank, N. J. Thromb. Thrombolysis 2019, 47, 533-539; Nielsen, V. G.; Bazzell, C. M. J. Thromb. Thrombolysis 2017, 43, 203-208; Nielsen, V. G.; Matika, R. W. Hum. Exp. Toxicol. 2017, 36, 727-733; Nielsen, V. G.; et al., Toxins 2018, 10, 322; Nielsen, V. G.; et al., Biometals 2018, 31, 51-59; Nielsen, V. G.; Frank, N. et al., Biometals 2018, 31, 951-959; Nielsen, V. G.; et al., Toxins 2019, 11, 94; Nielsen, V. G.; Frank, N. Hum Exp. Toxicol. 2019, 38, 216-226; Nielsen, V. G. J. Thromb. Thrombolysis 2019, 48, 256-262; Nielsen, V. G.; et al., Blood Coagul. Fibrinolysis 2019, 30, 379-384; Nielsen, V. G. J. Thromb. Thrombolysis 2019, 47, 73-79; Gessner, G.; et al., Eur. J. Pharmacol. 2017, 815, 33-41). […] The thrombelastographic model describes coagulation kinetics with the following three variables: time to maximum thrombus generation (TMRTG, minutes—a measure of time to onset of coagulation), maximum rate of thrombus generation (MRTG, dynes/cm^2/s—a measure of the velocity of clot growth) and total thrombus generation (TTG, dynes/cm^2—a measure of clot strength).

[2] = system: Atheris nitschei venom; experiment: as above; format: biochemical; conditions: venom 1 μg/mL in plasma
Description: as §1
The volumes of subsequently described plasmatic and other additives summed to a final volume of 360 μL. Samples were composed of 320 μL of plasma; 16.4 μL of PBS, 20 μL of 200 mM CaCl2), and 3.6 μL of PBS, RuCl3, or venom solution mixture, which were pipetted into a disposable cup in a Thrombelastograph® hemostasis system (Model 5000, Haemonetics Inc., Braintree, MA, USA) at 37° C., and then rapidly mixed by moving the cup up against and then away from the plastic pin five times. The PBS, RuCl3, or venom solution mixtures was always the last constituent added prior to mixing and data collection. The following viscoelastic parameters described previously (see, Nielsen, V. G.; et al., Biometals 2016, 29, 913-919; Nielsen, V. G.; Losada, P. A. Basic Clin. Pharmacol. Toxicol. 2017, 120, 207-212; Nielsen, V. G.; Frank, N. J. Thromb. Thrombolysis 2019, 47, 533-539; Nielsen, V. G.; Bazzell, C. M. J. Thromb. Thrombolysis 2017, 43, 203-208; Nielsen, V. G.; Matika, R. W. Hum. Exp. Toxicol. 2017, 36, 727-733; Nielsen, V. G.; et al., Toxins 2018, 10, 322; Nielsen, V. G.; et al., Biometals 2018, 31, 51-59; Nielsen, V. G.; Frank, N. et al., Biometals 2018, 31, 951-959; Nielsen, V. G.; et al., Toxins 2019, 11, 94; Nielsen, V. G.; Frank, N. Hum Exp. Toxicol. 2019, 38, 216-226; Nielsen, V. G. J. Thromb. Thrombolysis 2019, 48, 256-262; Nielsen, V. G.; et al., Blood Coagul. Fibrinolysis 2019, 30, 379-384; Nielsen, V. G. J. Thromb. Thrombolysis 2019, 47, 73-79) were measured: time to maximum rate of thrombus generation (TMRTG): this is the time interval (minutes) observed prior to maximum speed of clot growth; maximum rate of thrombus generation (MRTG): this is the maximum velocity of clot growth observed (dynes/cm^2/s); and total thrombus generation (TTG, dynes/cm^2), the final viscoelastic resistance observed after clot formation. Data were collected until the clot strength reached its final plateau (maximum amplitude) that was stable for 3 min.

[3] = system: human plasma; conditions: cited from earlier work
[4] = 100 μM CORM-2, 100 μM RuCl3 or both, venom 1 μg/ml in plasma
[5] = venom exposed ≥5 min in PBS to 100 μM CORM-2, 100 μM RuCl3 or both, venom 1 μg/ml in plasma
[6] = venom exposed 5 min to 100 μM RuCl3 in PBS, venom 1 μg/mL in plasma (Example III)
[7] = venom exposed 5 min to 100 μM RuCl3 in PBS

| Compound | maximum rate of thrombus generation (MRTG) [1, 4] | time to maximum rate of thrombus generation (TMRTG) [1, 4] | procoagulant activity of venom ([1]; venom exposed 5 min to 100 μM CORM-2 in PBS, venom 1 μg/mL in plasma (Example III)) | procoagulant activity of venom [1, 5] | procoagulant activity of venom ([2]; venom exposed 5 min to 100 μM CORM-2 in 5% human albumin) | procoagulant activity of venom ([2]; venom exposed 5 min to 100 μM CORM-2 in PBS) | coagulation kinetics ([3]; 1 μM CORM-2) | plasmatic coagulation kinetics ([3]; up to 10 μM CORM-2 in PBS) | maximum rate of thrombus generation (MRTG) [1, 6] | time to maximum rate of thrombus generation (TMRTG) [1, 6] | total thrombus generation (TTG) [1, 6] | maximum rate of thrombus generation (MRTG) [2, 7] | time to maximum rate of thrombus generation (TMRTG) [2, 7] | total thrombus generation (TTG) [2, 7] | human plasmatic coagulation ([3]; RuCl3 at or below 1 μM) |
| --- | --- | --- | --- | --- | --- | --- | --- | --- | --- | --- | --- | --- | --- | --- | --- |
| [C-]#[O+].[C-]#[O+].[C-]#[O+].[C-]#[O+].[C-]#[O+].[C-]#[O+].[Cl][Ru][Cl].[Cl][Ru][Cl] [CORM-2, tricarbonyldichlororuthenium(II) dimer] | decrease | increased; also recorded: significant increase | significantly attenuated | significantly decreased; also recorded: procoagulant activity inhibition | uninhibited | significantly attenuated | does not affect | no effect | – | – | – | – | – | – | – |
| [Cl][Ru]([Cl])[Cl] [RuCl3, ruthenium(III) chloride] | decrease | increase | – | significantly diminished | – | – | – | – | decrease | significant increase | decrease | significant increase | very diminutive increase | significant increase | does not significantly affect |
